Measured values taken from patent publication US4501734A, “Promotion of absorption of drugs administered through the alimentary system” (priority 1981, dated 1985).

Assays:
duodenum mucosa = test: Observation of the duodenum employed in the experiment for mucosa damage; assay type: in vivo; settings: rat duodenum employed in the experiment
Procedure: (§1) Experimental method A was repeated except that saponins A, B and C were respectively used in a concentration of 5 mg/liter in place of the galenical extract in a solution to be administered.
Examples according to the above experimental method are shown in the following Examples 6, 7 and 8. […] This may be ascribed to low acute toxicity of the drug absorption promoter of the present invention, as can readily be understood from the fact that the galenicals used in the present invention have been widely accepted as herb medicines or the like.

[1] = Ampicillin blood level after administration with galenical extract by stomach probe (Experimental method B); assay type: in vivo; settings: rat
Procedure: Rats weighing 200 to 230 g under anesthesia with ether were intubated with polyethylene tube (PE-10) at the femoral artery with ligation. The other end of PE-10 was passed subcutaneously to be led to the cervicodorsal part, at which it was drawn out of the skin and fixed with capping. After restoration of the vulnus at the operated portion (about 24 hours), each rat was provided for the experiment.
The test microorganism used was Bacillus subtilis, and the assay was performed by the paper disc method according to The Japan Antibiotic Drug Standards.

[2] = Ampicillin blood level after suppository with saponin A, B or C (suppository tests); assay type: in vivo; settings: rat
Procedure: The effectiveness of the saponins A, B and C when they were formulated into suppositories was tested in a method similar to the above Experimental method A.
Thus, rats weighing 180 to 220 g were anesthetized with 30 mg/kg of pentobarbital sodium and fixed by supination on a water bed made of a metal through which water regulated at a constant temperature of 39° C. was circulated. A suppository in a proportion of 1 g/kg of body weight of the rat was inserted through the anus and pushed by a glass bar until it reached the connecting point of the pubes.
The suppositories tested had the following compositions:
Saponin A, B or C: 0.5-2 mg/kg-rat, and
Vehicle*: remainder for giving 1 mg of suppository/kg-rat.
*Witepsol® produced by Dynamit Novel A.G.
Thus, the assay was performed by the paper disc method according to The Japan Antibiotic Drug Standards using Bacillus subtilis as the test microorganism.

[3] = Ampicillin blood level after injection with galenical extract or isolated saponin into rat duodenal loop (Experimental method A); settings: in vivo
Procedure: Rats weighing 180 to 220 g were anesthetized with 30 mg/kg of pentobarbital sodium and fixed by supination on a water bed made of a metal through which water regulated at a constant temperature of 39° C. was circulated. A duodenal loop of 10 cm length was prepared in a conventional manner with the point 1 cm under the pyloric part of the stomach as the starting point. […] The rats were bled from jugular veins 10, 20, 40, 60, 90, 120, 180 and 240 minutes after injection and activity concentration in the blood in each case was measured according to biological assay.
That is, according to The Japan Antibiotic Drug Standards, using Bacillus subtilis as test microorganism, cultivation assay was performed by the paper disc method at 37° C. for 15 to 20 hours.
The composition of the solution had the following composition:
Galenical extract: 2 mg/ml-20 mg/ml
as §1

SMILES: C[C@@H]1O[C@@H](O[C@H]2[C@H](O[C@H]3CC[C@@]4(C)[C@@H](CC[C@]5(C)[C@@H]4CC=C4[C@@H]6CC(C)(C)CC[C@]6(C(=O)O)CC[C@]45C)[C@]3(C)CO)OC[C@H](O)[C@@H]2O)[C@H](O)[C@H](O[C@@H]2OC[C@H](O)[C@H](O)[C@H]2O)[C@H]1O [Saponin A, 3-O-[α-L-arabinopyranosyl-(1→3)-α-L-rhamnopyranosyl-(1→2) -α-L-arabinopyranosyl]-hederagenin]
- damage of mucosa or abnormality such as hemorrhagic spot of the duodenum (duodenum mucosa): no damage of mucosa (e.g. mucosa ablation) or abnormality such as hemorrhagic spot

SMILES: C[C@@H]1O[C@@H](O[C@H]2[C@H](O[C@H]3CC[C@@]4(C)[C@@H](CC[C@]5(C)[C@@H]4CC=C4[C@@H]6CC(C)(C)CC[C@]6(C(=O)O)CC[C@]45C)[C@]3(C)CO)OC[C@H](O)[C@@H]2O)[C@H](O)[C@H](O[C@@H]2OC[C@@H](O)[C@H](O)[C@H]2O)[C@H]1O [Saponin B, 3-O-[β-D-xylopyranosyl-(1→3)-α-L-rhamnopyranosyl-(1→2)-α-L-arabinopyranosyl]-hederagenin]
- damage of mucosa or abnormality such as hemorrhagic spot of the duodenum (duodenum mucosa): no damage of mucosa (e.g. mucosa ablation) or abnormality such as hemorrhagic spot

SMILES: C[C@@H]1O[C@@H](O[C@H]2[C@H](O[C@H]3CC[C@@]4(C)[C@@H](CC[C@]5(C)[C@@H]4CC=C4[C@@H]6CC(C)(C)CC[C@]6(C(=O)O)CC[C@]45C)[C@]3(C)CO)OC[C@H](O)[C@@H]2O)[C@H](O)[C@H](O[C@@H]2O[C@@H](CO)[C@H](O)[C@H]2O)[C@H]1O [Saponin C, 3-O-[α-L-arabinofuranosyl-(1→3)-α-L-rhamnopyranosyl-(1→2)-α-L-arabinopyranosyl]-hederagenin]
- damage of mucosa or abnormality such as hemorrhagic spot of the duodenum (duodenum mucosa): no damage of mucosa (e.g. mucosa ablation) or abnormality such as hemorrhagic spot

SMILES: CC1(C)S[C@@H]2[C@H](NC(=O)[C@H](N)c3ccccc3)C(=O)N2[C@H]1C(=O)O [ampicillin sodium]
- Concentration in Blood, 10 min. (- Control) ([1]; in vivo, po, 25 mg/kg, 10 min): 0.3 μg titer/ml
- Concentration in Blood, 20 min. (- Control) ([1]; in vivo, po, 25 mg/kg, 20 min): 0.6 μg titer/ml
- Concentration in Blood, 40 min. (- Control) ([1]; in vivo, po, 25 mg/kg, 40 min): 1.3 μg titer/ml
- Concentration in Blood, 60 min. (- Control) ([1]; in vivo, po, 25 mg/kg, 1 h): 0.5 μg titer/ml
- concentration at 10 min ([1]; in vivo, po, 25 mg/kg, Concentration in Blood, 10 min. (- Control)): 400 ng/mL
- concentration at 20 min ([1]; in vivo, po, 25 mg/kg, Concentration in Blood, 20 min. (- Control)): 800 ng/mL
- concentration at 40 min ([1]; in vivo, po, 25 mg/kg, Concentration in Blood, 40 min. (- Control)): 1200 ng/mL
- concentration at 1 h ([1]; in vivo, po, 25 mg/kg, Concentration in Blood, 60 min. (- Control)): 800 ng/mL
- concentration at […] ([1]; in vivo, po, 25 mg/kg, Concentration in Blood, 90 min. (- Control)): 300 ng/mL
- Concentration in Blood, 90 min. (- Control) ([1]; stomach probe, ampicillin sodium without extract (Control), 90 min, tr.: trace): tr.
- Concentration in Blood, 120 min. (- Control) ([1]; stomach probe, ampicillin sodium without extract (Control), 120 min, tr.: trace): tr.
- Concentration in Blood, 180 min. (- Control) ([1]; stomach probe, ampicillin sodium without extract (Control), 180 min, tr.: trace): tr.
- Concentration in Blood, 240 min. (- Control) ([1]; stomach probe, ampicillin sodium without extract (Control), 240 min, tr.: trace): tr.
- concentration at 5 min ([2]; in vivo, 50 mg/kg): 3120 ± 1660 ng/mL
- concentration at 10 min ([2]; in vivo, 50 mg/kg): 3980 ± 1890 ng/mL
- concentration at 35 min ([2]; in vivo, 50 mg/kg): 1910 ± 890 ng/mL
- concentration at 1 h ([2]; in vivo, 50 mg/kg): 930 ± 540 ng/mL
- Concentration in Blood, 100 min. ([2]; suppository, ampicillin sodium 50 mg/kg, 100 min (Table 8A, upper part)): trace
- Concentration in Blood, 20 min. (Control) ([3]; 20 min): 0.89 ± 0.07 μg titer/ml
- Concentration in Blood, 40 min. (Control) ([3]; 40 min): 1.1 μg titer/ml
- Concentration in Blood, 240 min. (Control) ([3]; 4 h): 0.5 μg titer/ml
- concentration at 10 min ([3]; Concentration in Blood, 10 min. (Control)): 600 ng/mL
- concentration at 40 min ([3]; Concentration in Blood, 40 min. (Control)): 1100 ng/mL
- concentration at 1 h ([3]; Concentration in Blood, 60 min. (Control)): 1200 ng/mL
- concentration at 3 h ([3]; Concentration in Blood, 180 min. (Control)): 500 ng/mL
- concentration at 4 h ([3]; Concentration in Blood, 240 min. (Control)): 500 ng/mL
